The subject of one assay is TNFα. As to the kind of experiment: Cot Monocyte TNFα Cell Based Assay.
The target in a further assay is Human Cot (Homo sapiens (Human), UniProt P41279). As to the kind of experiment: High Throughput Cot Biochemical Assay. Particulars: Cot HTRF (TR-FRET) biochemical assay. On the technique in general: In TR-FRET formats the signal depends on donor and acceptor labels being close together.
[1] abbreviates: Homo sapiens, Monocyte, read-out: EC50 TNF, LPS-stimulated human monocytes, TNFα.
Where [2] appears, read: read-out: EC50 TNF, LPS-stimulated human monocytes, TNFα.

Where two headings read alike, the source gives them in different places.

Sequence of Human Cot (P41279 30-397): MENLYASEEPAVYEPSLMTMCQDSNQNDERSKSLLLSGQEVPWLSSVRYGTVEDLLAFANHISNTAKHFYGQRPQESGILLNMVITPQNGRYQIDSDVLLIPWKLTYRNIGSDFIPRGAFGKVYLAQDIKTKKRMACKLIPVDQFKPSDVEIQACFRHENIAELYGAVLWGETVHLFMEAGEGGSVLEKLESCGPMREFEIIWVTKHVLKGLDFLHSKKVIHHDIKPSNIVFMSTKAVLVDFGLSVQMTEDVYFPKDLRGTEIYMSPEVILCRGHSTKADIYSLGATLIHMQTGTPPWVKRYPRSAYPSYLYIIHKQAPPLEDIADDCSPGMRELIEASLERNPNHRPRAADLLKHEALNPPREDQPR

As a reminder, the EC50 is the concentration giving half of the maximal effect. The IC50 is the concentration needed to halve the response being measured. Turning to `Cc1nc(F)ccc1[C@H](Nc1cc(Cl)c2ncc(C#N)c(NCC(C)(C)C)c2c1)c1cn(C(CF)CF)nn1` [Example 762, (S)-8-chloro-6-(((1-(1,3-difluoropropan-2-yl)-1H-1,2,3-triazol-4-yl)(6-fluoro-2-methylpyridin-3-yl)methyl)amino)-4-(neopentylamino)quinoline-3-carbonitrile], the EC50 in the assay with TNFα (setting [1]) came out at 50 nM. At Human Cot (IC50 HTRF), this molecule gave an IC50 of 3 nM.

Take `Cc1nc(F)ccc1[C@H](Nc1cc(Cl)c2ncc(C#N)c(NCC(C)(C)C(F)(F)F)c2c1)c1cn(C2(C3CC3)CC2)nn1` [Example 763, (S)-6-(((1-([1,1′-bi(cyclopropan)]-1-yl)-1H-1,2,3-triazol-4-yl)(6-fluoro-2-methylpyridin-3-yl)methyl)amino)-8-chloro-4-((3,3,3-trifluoro-2,2-dimethylpropyl)amino)-quinoline-3-carbonitrile]: in the assay on TNFα (setting [1]), the EC50 was determined as 40 nM. Moreover, on Human Cot (IC50 HTRF), the IC50 was determined as 3 nM.

As for `Cc1nc(F)ccc1[C@H](Nc1cc(Cl)c2ncc(C#N)c(NCC(C)(C)C)c2c1)c1cn(CC2(C)CC2)nn1` [Example 764, (S)-8-chloro-6-(((6-fluoro-2-methylpyridin-3-yl)(1-((1-methylcyclopropyl)-methyl)-1H-1,2,3-triazol-4-yl)methyl)amino)-4-(neopentylamino)quinoline-3-carbonitrile], in the assay on TNFα (setting [1]), the EC50 is 46 nM. The molecule further returned an IC50 on Human Cot (IC50 HTRF) of 4 nM.

For `CC(C)(C)CNc1c(C#N)cnc2c(Cl)cc(N[C@H](c3cn(C4(C(F)F)CC4)nn3)c3cccc4c(=O)[nH]ccc34)cc12` [Example 765, (S)-8-chloro-6-(((1-(1-(difluoromethyl)cyclopropyl)-1H-1,2,3-triazol-4-yl)(1-oxo-1,2-dihydroisoquinolin-5-yl)methyl)amino)-4-(neopentylamino)quinoline-3-carbonitrile], the EC50 with TNFα (setting [1]) came to 131 nM. The molecule also registered an IC50 on Human Cot (IC50 HTRF) of 4 nM.

For `Cc1nc(F)ccc1[C@H](Nc1cc(Cl)c2ncc(C#N)c(NCC(C)(C)C)c2c1)c1cn(C2CC23CC3)nn1` (stereo partly drawn) [Example 766, 8-chloro-6-(((1S)-(6-fluoro-2-methylpyridin-3-yl)(1-(spiro[2.2]pentan-1-yl)-1H-1,2,3-triazol-4-yl)methyl)amino)-4-(neopentylamino)quinoline-3-carbonitrile], in the assay with TNFα (setting [1]), the EC50 amounted to 30 nM. Besides, it took 2 nM to reach half-maximal inhibition at Human Cot (IC50 HTRF) (IC50).

`Cn1ccc2c([C@H](Nc3cc(Cl)c4ncc(C#N)c(NCC(C)(C)C)c4c3)c3cn(C4(C(F)F)CC4)nn3)ccnc21` [Example 767, (S)-8-chloro-6-(((1-(1-(difluoromethyl)cyclopropyl)-1H-1,2,3-triazol-4-yl)(1-methyl-1H-pyrrolo[2,3-b]pyridin-4-yl)methyl)amino)-4-(neopentylamino)quinoline-3-carbonitrile]: the EC50 in the assay on TNFα (setting [1]) was 209 nM. The IC50 at Human Cot (IC50 HTRF) amounted to 18 nM.

As for `Cn1ccc2c([C@H](Nc3cc(Cl)c4ncc(C#N)c(NCC(C)(C)CO)c4c3)c3cn(C45CC(C4)C5)nn3)cccc2c1=O` [Example 768, (S)-6-(((1-(bicyclo[1.1.1]pentan-1-yl)-1H-1,2,3-triazol-4-yl)(2-methyl-1-oxo-1,2-dihydroisoquinolin-5-yl)methyl)amino)-8-chloro-4-((3-hydroxy-2,2-dimethylpropyl)amino)quinoline-3-carbonitrile], the EC50 with TNFα (setting [1]) was determined as 86 nM. The molecule also gave an IC50 against Human Cot (IC50 HTRF) of 6 nM.

Consider `CCn1ccc2c([C@H](Nc3cc(Cl)c4ncc(C#N)c(NCC(C)(C)C)c4c3)c3cn(C45CC(C4)C5)nn3)cccc2c1=O` [Example 769, (S)-6-(((1-(bicyclo[1.1.1]pentan-1-yl)-1H-1,2,3-triazol-4-yl)(2-ethyl-1-oxo-1,2-dihydroisoquinolin-5-yl)methyl)amino)-8-chloro-4-(neopentylamino)quinoline-3-carbonitrile], for which the EC50 in the assay on TNFα (setting [1]) stood at 28 nM. The molecule further displayed an IC50 against Human Cot (IC50 HTRF) of 2 nM.

For `CC(C)(C)CNc1c(C#N)cnc2c(Cl)cc(N[C@H](c3cn(C4(C(F)(F)F)CC4)nn3)c3cccc4c(=O)n(CC(F)F)ccc34)cc12` [Example 770, (S)-8-chloro-6-(((2-(2,2-difluoroethyl)-1-oxo-1,2-dihydroisoquinolin-5-yl)(1-(1-(trifluoromethyl)cyclopropyl)-1H-1,2,3-triazol-4-yl)methyl)amino)-4-(neopentylamino)quinoline-3-carbonitrile], in the assay with TNFα (setting [1]), the EC50 stood at 108 nM. Also, the IC50 against Human Cot (IC50 HTRF) is 4 nM.

For `CC(C)(C)CNc1c(C#N)cnc2c(Cl)cc(N[C@H](c3cn(C4(C(F)(F)F)CC4)nn3)c3cccc4c(=O)n(CC(F)(F)F)ccc34)cc12` [Example 771, (S)-8-chloro-4-(neopentylamino)-6-(((1-oxo-2-(2,2,2-trifluoroethyl)-1,2-dihydroisoquinolin-5-yl)(1-(1-(trifluoromethyl)-cyclopropyl)-1H-1,2,3-triazol-4-yl)methyl)amino)quinoline-3-carbonitrile], the EC50 in the assay on TNFα (setting [1]) worked out at 293 nM. The molecule also showed an IC50 at Human Cot (IC50 HTRF) of 4 nM.

With `CC(C)n1ccc2c([C@H](Nc3cc(Cl)c4ncc(C#N)c(NCC(C)(C)C)c4c3)c3cn(C45CC(C4)C5)nn3)cccc2c1=O` [Example 772, (S)-6-(((1-(bicyclo[1.1.1]pentan-1-yl)-1H-1,2,3-triazol-4-yl)(2-isopropyl-1-oxo-1,2-dihydroisoquinolin-5-yl)methyl)amino)-8-chloro-4-(neopentylamino)quinoline-3-carbonitrile], in the assay on TNFα (setting [1]), the EC50 worked out at 33 nM. The same molecule showed an IC50 against Human Cot (IC50 HTRF) of 2 nM.

For `CCn1ccc2c([C@H](Nc3cc(Cl)c4ncc(C#N)c(NCC(C)(C)C)c4c3)c3cn(C4(C)CC4)nn3)cccc2c1=O` [Example 773, (S)-8-chloro-6-(((2-ethyl-1-oxo-1,2-dihydroisoquinolin-5-yl)(1-(1-methylcyclopropyl)-1H-1,2,3-triazol-4-yl)methyl)amino)-4-(neopentylamino)quinoline-3-carbonitrile], the EC50 in the assay on TNFα (setting [1]) came to 35 nM. For the same molecule, it took 2 nM to reach half-maximal inhibition at Human Cot (IC50 HTRF) (IC50).

On to `Cn1ccc2c([C@H](Nc3cc(Cl)c4ncc(C#N)c(NCC(C)(C)C)c4c3)c3cn(C4(CF)CC4)nn3)cccc2c1=O` [Example 775, (S)-8-chloro-6-(((1-(1-(fluoromethyl)cyclopropyl)-1H-1,2,3-triazol-4-yl)(2-methyl-1-oxo-1,2-dihydroisoquinolin-5-yl)methyl)amino)-4-(neopentylamino)quinoline-3-carbonitrile], for which, in the assay on TNFα (setting [1]), the EC50 was determined as 27 nM. The molecule further displayed an IC50 against Human Cot (IC50 HTRF) of 3 nM.

In the case of `Cn1ccc2c([C@H](Nc3cc(Cl)c4ncc(C#N)c(NCC(C)(C)C)c4c3)c3cn(C4(C)CC4)nn3)cccc2c1=O` [Example 776, (S)-8-chloro-6-(((2-methyl-1-oxo-1,2-dihydroisoquinolin-5-yl)(1-(1-methylcyclopropyl)-1H-1,2,3-triazol-4-yl)methyl)amino)-4-(neopentylamino)quinoline-3-carbonitrile], the EC50 in the assay on TNFα (setting [1]) was 24 nM. Besides, at Human Cot (IC50 HTRF), the IC50 was 2 nM.

Turning to `C[C@@H](CF)n1cc([C@@H](Nc2cc(Cl)c3ncc(C#N)c(NCC(C)(C)C)c3c2)c2cccc3c(=O)n(C)ccc23)nn1` [Example 778, 8-chloro-6-(((S)-(1-((S)-1-fluoropropan-2-yl)-1H-1,2,3-triazol-4-yl)(2-methyl-1-oxo-1,2-dihydroisoquinolin-5-yl)methyl)amino)-4-(neopentylamino)quinoline-3-carbonitrile], the EC50 in the assay on TNFα (setting [1]) was 30 nM. Further, the IC50 at Human Cot (IC50 HTRF) was found to be 4 nM.

As to `Cn1ccc2c([C@H](Nc3cc(Cl)c4ncc(C#N)c(NCC(C)(C)C)c4c3)c3cn(C4(C5CC5)CC4)nn3)cccc2c1=O` [Example 779, (S)-6-(((1-([1,1′-bi(cyclopropan)]-1-yl)-1H-1,2,3-triazol-4-yl)(2-methyl-1-oxo-1,2-dihydroisoquinolin-5-yl)methyl)amino)-8-chloro-4-(neopentylamino)quinoline-3-carbonitrile], the EC50 in the assay on TNFα (setting [1]) is 26 nM. Further, the half-maximal inhibitory concentration (IC50) against Human Cot (IC50 HTRF) was determined as 3 nM.

On to `Cn1ccc2c([C@H](Nc3cc(Cl)c4ncc(C#N)c(NCC(C)(C)C(F)(F)F)c4c3)c3cn(C4(C(F)(F)F)CC4)nn3)cccc2c1=O` [Example 780, (S)-8-chloro-6-(((2-methyl-1-oxo-1,2-dihydroisoquinolin-5-yl)(1-(1-(trifluoromethyl)-cyclopropyl)-1H-1,2,3-triazol-4-yl)methyl)amino)-4-((3,3,3-trifluoro-2,2-dimethylpropyl)amino)-quinoline-3-carbonitrile], for which the EC50 in the assay with TNFα (setting [1]) worked out at 52 nM. The IC50 at Human Cot (IC50 HTRF) came to 5 nM.

In the case of `Cn1ccc2c([C@H](Nc3cc(Cl)c4ncc(C#N)c(NCC(C)(C)C(F)(F)F)c4c3)c3cn(C4(C)CC4)nn3)cccc2c1=O` [Example 781, (S)-8-chloro-6-(((2-methyl-1-oxo-1,2-dihydroiso-quinolin-5-yl)(1-(1-methylcyclopropyl)-1H-1,2,3-triazol-4-yl)methyl)amino)-4-((3,3,3-trifluoro-2,2-dimethylpropyl)amino)quinoline-3-carbonitrile], the EC50 with TNFα (setting [2]) is 22 nM. In addition, the IC50 at Human Cot (read-out: IC50 HTRF) stood at 2 nM.

Take `C[C@@H](CF)n1cc([C@@H](Nc2cc(Cl)c3ncc(C#N)c(NCC(C)(C)C(F)(F)F)c3c2)c2cccc3c(=O)n(C)ccc23)nn1` [Example 784, 8-chloro-6-(((S)-(1-((S)-1-fluoropropan-2-yl)-1H-1,2,3-triazol-4-yl)(2-methyl-1-oxo-1,2-dihydroiso-quinolin-5-yl)methyl)amino)-4-((3,3,3-trifluoro-2,2-dimethylpropyl)amino)quinoline-3-carbonitrile]: the EC50 with TNFα (setting [2]) amounted to 51 nM. Further, the IC50 at Human Cot (read-out: IC50 HTRF) is 3 nM.

Take `CC(C)(C)CNc1c(C#N)cnc2c(Cl)cc(N[C@H](c3cn(C45CC(C4)C5)nn3)c3cccc4c(=O)[nH]ccc34)cc12` [Example 787, (S)-6-(((1-(bicyclo[1.1.1]pentan-1-yl)-1H-1,2,3-triazol-4-yl)(1-oxo-1,2-dihydroisoquinolin-5-yl)methyl)amino)-8-chloro-4-(neopentylamino)quinoline-3-carbonitrile]: the EC50 with TNFα (setting [1]) came out at 65 nM. On Human Cot (IC50 HTRF), 2 nM corresponded to half-maximal inhibition (IC50).
